In patent publication US4305940A, “Benzamides with local anaesthetic and antiarrhythmic activity, salts, and method of preparation thereof and pharmaceutical compositions therefrom” (B.B.R. Boehringer Biochemia Robin S.p.A., priority 1979, dated 1981):

Legend:
in vivo = settings: rat, in vivo, ip; 5 days; hydrochloride salts; range in parentheses; read-out: DL50 i.p.
Excerpt: (§1) The behavior of the animals has then been followed for a period of five days. The DL50 has been determined according to the method of I. T. Litchfield and F. Wilcoxon, (J. Pharmacol. Exper. Ther., 96, 99, 1949). The compound numbers in Table II correspond to the numbers in Table I.

Swiss rats = experiment: in vivo; settings: lidocaine = 1
Excerpt: as §1

corneal reflux = experiment: Surface anaesthesia (corneal reflux, conjunctival sac); settings: for Surface anaesthesia DL50/CE50: analogous to therapeutic index, DL50 i.p.; for Surface anaesthesia CE50: concentration in percent achieving 50% of total responses, pH 7 saline, hydrochloride salts; for Surface anaesthesia activity with respect to lidocaine: lidocaine = 1
Procedure: (§2) The data reported hereinbelow relate in every instance to the hydrochloride salts of the individual compounds.
The surface anaesthesia has been determined in rabbits according to the method of M. R. A. Change and H. Lobstein (J. Pharmacol. Exper. Ther., 82, 203, 1944). The compounds dissolved in physiological saline solution of pH 7 were injected into the conjunctival sac and the corneal reflux was induced with the brush of Frey six times at intervals of five minutes for a total period of 40 minutes.

[1] = tested on: response to skin puncture; experiment: Anaesthesia by infiltration (subcutaneous, back puncture); assay type: in vivo, guinea pigs; settings: for Infiltration anaesthesia DL50/CE50: analogous to therapeutic index, DL50 i.p.; for Infiltration anaesthesia CE50: concentration in percent achieving 50% of total responses, hydrochloride salts; for Infiltration anaesthesia DL50/CE50 relative to lidocaine / Infiltration anaesthesia activity with respect to lidocaine: lidocaine = 1
Procedure: The anaesthesia by infiltration has been determined in guinea pigs according to the method of E. Bulbring and I. Wajda, (Journal of Pharmacol. Exper. Ther. 85, 78, 1945). In each experiment, four doses of the substance in 0.25 cc of physiological saline solution is injected subcutaneously on the back after removal of hair. After five minutes, each animal is punctured six times at intervals of […].
The test was repeated every five minutes for a period of 30 minutes. The extent of anaesthesia by infiltration was measured quantitatively by determining the sum of the instances in which the animal remained immobile during the thirty minute period on 36 possible blinks.

[2] = tested on: reflux of contraction of the lower limbs (lumbar plexus); experiment: Anaesthesia by conduction (lumbar plexus); assay type: in vivo, frogs; settings: for Conduction anaesthesia DL50/t' / Conduction anaesthesia 1/t'max. (c = 1%) with respect to lidocaine: c = 1%; for Conduction anaesthesia DL50/t': DL50 i.p.; for Conduction anaesthesia 1/t'max. (c = 1%) with respect to lidocaine / Conduction anaesthesia DL50/t' relative to lidocaine: lidocaine = 1
Excerpt: Anaesthesia by conduction has been determined on frogs according to the method of E. Bulbring and I. Wajda (Journal Pharmacol. Exper. Ther., 85, 78, 1945). The compounds dissolved in physiological saline solution are introduced into the cavity obtained by a transversal incision in the abdomen and separating the viscera in order to expose the lumbar plexus. The period of time necessary to eliminate the reflux of contraction of the lower limbs stimulated by immersion of both posterior legs into hydrochloric acid of increasing concentration between 0.05-0.1-0.2 N for a period not in excess of ten seconds, at intervals of one minute is determined. The extent of anaesthesia of conduction has been determined by measuring the period of time required for each compound in three different concentrations, 0.2%-0.5%-1.0% in order to abolish the reflex of contraction with the concentration of hydrochloric acid indicated hereinabove.

[3] = tested on: aconitine-induced ventricular arrhythmia; experiment: Anti-arrhythmic activity, aconitine infusion; assay type: in vivo, Wistar rats; settings: for Aconitine i.v. necessary to induce ventricular arrhythmia: 3 min before aconitine 10 mcg/kg/min; for Anti-arrhythmic activity compared with lidocaine: times more active than lidocaine; for Anti-arrhythmic activity compared with quinidine: times more active than quinidine
Procedure: as §2
This determination has been made in Wistar rats, anaesthetized with ethylurethane, (1 g/kg i.p.), according to the method of B. Vargaftig and J. L. Coigner (European Journal Pharmacology, 6, 49, 1969). The compounds dissolved in physiological saline solution, are injected intravenously three minutes prior to the infusion of aconitine, (10 mcg/kg/min.). The extent of anti-arrhythmic activity is determined quantitatively by determining the amount of aconitine necessary to induce ventricular arrhythmia.

Row | SMILES | LD50 at 120 h (in vivo) | DL50 i.p. relative to lidocaine (Swiss rats) | Surface anaesthesia DL50/CE50 (corneal reflux) | Surface anaesthesia CE50 (corneal reflux) | Surface anaesthesia activity with respect to lidocaine (corneal reflux) | Infiltration anaesthesia DL50/CE50 [1] | Infiltration anaesthesia CE50 [1] | Infiltration anaesthesia DL50/CE50 relative to lidocaine [1] | Infiltration anaesthesia activity with respect to lidocaine [1] | Conduction anaesthesia DL50/t' [2] | Conduction anaesthesia 1/t'max. (c = 1%) with respect to lidocaine [2] | Conduction anaesthesia DL50/t' relative to lidocaine [2] | Aconitine i.v. necessary to induce ventricular arrhythmia ([3]; 0.6 mg/kg i.v.) | Aconitine i.v. necessary to induce ventricular arrhythmia ([3]; 1.0 mg/kg i.v.) | Aconitine i.v. necessary to induce ventricular arrhythmia ([3]; 3.0 mg/kg i.v.) | Anti-arrhythmic activity compared with lidocaine [3] | Anti-arrhythmic activity compared with quinidine [3] | Aconitine i.v. necessary to induce ventricular arrhythmia ([3]; 6.0 mg/kg i.v.) | Aconitine i.v. necessary to induce ventricular arrhythmia ([3]; 8.0 mg/kg i.v.)
1 | CCN(CC)Cc1ccccc1C(=O)Nc1c(C)cccc1C [Compound 1, 2,6-Dimethylanilide of 2-diethylaminomethylbenzoic acid] | 17.2 mg/kg | 0.12 | 34 | 0.50% | 4.60 | 69 | 0.25% | 0.36 | 3.00 | 6 | 3.6 | 0.46 | 50 ± 5 µg/kg | 67 ± 8 µg/kg | 69 ± 8 µg/kg | at least twenty times more active than lidocaine | at least ten times more active than quinidine |  | 
2 | CCN(CC)Cc1cccc(C(=O)Nc2c(C)cccc2C)c1 [Compound 2] | 67 mg/kg | 0.47 | 163 | 0.41% | 5.60 | 291 | 0.23% | 1.54 | 3.26 | 67 | 11.1 | 5.15 |  | 43 ± 8 µg/kg | 77 ± 9 µg/kg |  |  | 82 ± 9 µg/kg | 
3 | CCN(CC)Cc1ccc(C(=O)Nc2c(C)cccc2C)cc1 [Compound 3] | 82.5 mg/kg | 0.58 | 17 | 4.78% | 0.48 | 10 | 8.02% | 0.05 | 0.09 | 9 | 1.2 | 0.69 |  | 38 ± 5 µg/kg | 39 ± 6 µg/kg |  |  |  | 47 ± 7 µg/kg
4 | CCN(CC)Cc1ccccc1C(=O)Nc1c(C)cccc1Cl [Compound 13] | 16.3 mg/kg | 0.11 | 27 | 0.60% | 3.83 | 58 | 0.28% | 0.31 | 2.68 | 16 | 11.1 | 1.23 | 48 ± 6 µg/kg | 65 ± 7 µg/kg | 67 ± 7 µg/kg | at least twenty times more active than lidocaine | at least ten times more active than quinidine |  | 
5 | CCN(CC)Cc1ccccc1C(=O)Nc1c(C)cccc1C(=O)OC [Compound 14] | 24.7 mg/kg | 0.17 | 60 | 0.41% | 5.61 | 57 | 0.43% | 0.30 | 1.74 | 5 | 2.2 | 0.38 | 45 ± 8 µg/kg | 60 ± 7 µg/kg | 81 ± 7 µg/kg | at least twenty times more active than lidocaine | at least ten times more active than quinidine |  | 
